Experimental findings from PMC7106896, “Synthesis and biological evaluation of 2-(4-methylsulfonyl phenyl) indole derivatives: multi-target compounds with dual antimicrobial and anti-inflammatory activities” (BMC Chemistry, 2020) are described below.

Series [1] deals with C. albicans. Briefly: Minimal inhibitory concentration measurement. The series is classed as cell-based. Conditions: Candida albicans; read-out: MIC Ca (C. albicans).
Procedure: (§3) The antimicrobial and antifungal screening was performed according to CO-ADD (The Community for Antimicrobial Drug Discovery) procedures [27].
For series [2], the system named is C. neoformans var. grubii. Briefly: Minimal inhibitory concentration measurement. The series is classed as cell-based. Particulars: Cryptococcus neoformans; read-out: MIC Cn (C. neoformans var. grubii).
Procedure: as §3
Series [3] concerns Acinetobacter baumannii (ATCC 19606). Briefly: Antimicrobial screening (CO-ADD), growth inhibition at single concentration. The series is classed as cell-based. Conditions: ATCC19606, at 32 µg/mL concentration, read-out: growth inhibition % Ab (A. baumannii). The procedure: (§1) The antimicrobial study was performed by CO-ADD (The Community for Antimicrobial Drug Discovery), funded by the Wellcome Trust (UK) and The University of Queensland (Australia). Evaluation of all synthesized compounds for their antimicrobial activities was done against five pathogenic bacteria, methicillin-resistant Staphylococcus aureus (ATCC 43300) as Gram-positive bacteria, Escherichia coli (ATCC 25922), Klebsiella pneumonia (ATCC 700603), Acinetobacter baumannii (ATCC 19606) and Pseudomonas aeruginosa (ATCC 27853) as Gram-negative bacteria and antifungal activity against two pathogenic fungal strains Candida albicans (ATCC 90028) and Cryptococcus neoformans var. grubii (H99; ATCC 208821) (Table 1).

Series [4] relates to Escherichia coli (ATCC 25922). The series is described as above. Type of series: cell-based. Conditions: ATCC25922, at 32 µg/mL concentration, read-out: growth inhibition % Ec (E. coli). On the procedure: as §1
Series [5] relates to Klebsiella pneumonia (ATCC 700603). Described as above. The series is classed as cell-based. Particulars: Klebsiella pneumoniae, ATCC700603; at 32 µg/mL concentration; read-out: growth inhibition % Kp (K. pneumoniae). On the procedure:
as §1

Series [6] has as its system Pseudomonas aeruginosa (ATCC 27853). Described as above. Particulars: ATCC27853, at 32 µg/mL concentration, read-out: growth inhibition % Pa (P. aeruginosa). Type of series: cell-based. The procedure: as §1
The subject of series [7] is methicillin-resistant Staphylococcus aureus (ATCC 43300). The description is as above. The series is classed as cell-based. Conditions: ATCC 43300 / MRSA, at 32 µg/mL concentration, read-out: growth inhibition % Sa (MRSA). The procedure:
as §1

Series [8] concerns Candida albicans (ATCC 90028). Briefly: Antifungal screening (CO-ADD), growth inhibition at single concentration. Type of series: cell-based. Particulars: ATCC90028, at 32 µg/mL concentration, read-out: growth inhibition % Ca (C. albicans). On the procedure:
as §1

Series [9] deals with MRSA. Briefly: Minimal inhibitory concentration measurement. Type of series: cell-based. Particulars: Staphylococcus aureus, read-out: MIC Sa (MRSA).
Procedure: as §3
Series [10] concerns E. coli. Briefly: Minimal inhibitory concentration measurement. Conditions: Escherichia coli; read-out: MIC Ec (E. coli). The series is classed as cell-based.
Procedure: as §3
In series [11] the test system is P. aeruginosa. Briefly: Minimal inhibitory concentration measurement. The series is classed as cell-based. Particulars: Pseudomonas aeruginosa; read-out: MIC Pa (P. aeruginosa).
Procedure: as §3
In series [12] the test system is A. baumannii. Briefly: Minimal inhibitory concentration measurement. The series is classed as cell-based. Particulars: Acinetobacter baumannii; read-out: MIC Ab (A. baumannii).
Procedure: as §3
Series [13] can be described thus: Cytotoxicity against human embryonic kidney cell line. The series is classed as cell-based. Particulars: read-out: CC50 (concentration at 50% cytotoxicity). The procedure: (§2) The safety margin for the active compounds to human cells was determined through cytotoxicity against human embryonic kidney cell line and hemolysis of human red blood cells. The tested compounds 7a, 7g, and 7i were tolerated and non-toxic to human cells as the cytotoxic and hemolytic dose was higher than the therapeutic dose (Table 2).

Series [14] relates to human red blood cells. Briefly: Hemolysis of human red blood cells. Type of series: cell-based. The procedure:
as §2

Series [15] concerns the target T1, Ovine COX-1 (Ovis aries, UniProt P05979).
T1 construct: purchased Cayman Chemical, Ann Arbor, MI, USA 760111
T1 sequence (P05979 25-600): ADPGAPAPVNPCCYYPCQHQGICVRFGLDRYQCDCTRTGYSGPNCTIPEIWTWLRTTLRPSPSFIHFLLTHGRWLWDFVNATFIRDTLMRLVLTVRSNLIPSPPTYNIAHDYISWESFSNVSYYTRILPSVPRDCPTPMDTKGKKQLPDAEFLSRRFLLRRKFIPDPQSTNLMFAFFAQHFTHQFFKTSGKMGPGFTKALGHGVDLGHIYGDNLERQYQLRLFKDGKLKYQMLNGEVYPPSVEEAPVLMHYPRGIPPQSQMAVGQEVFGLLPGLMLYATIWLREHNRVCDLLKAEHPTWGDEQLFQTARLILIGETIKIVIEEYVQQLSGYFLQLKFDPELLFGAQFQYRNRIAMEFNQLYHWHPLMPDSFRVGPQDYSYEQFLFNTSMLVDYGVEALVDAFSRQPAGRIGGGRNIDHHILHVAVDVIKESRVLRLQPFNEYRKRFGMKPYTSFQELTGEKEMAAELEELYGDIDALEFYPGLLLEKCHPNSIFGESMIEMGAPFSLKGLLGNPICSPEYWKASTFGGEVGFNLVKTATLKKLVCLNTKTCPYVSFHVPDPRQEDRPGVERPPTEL
Briefly: In vitro COX inhibition colorimetric assay. The series is classed as biochemical.

The subject of series [16] is human recombinant COX-2. Briefly: In vitro COX inhibition colorimetric assay. The series is classed as biochemical. Conditions: COX-1 IC50/COX-2 IC50.
Series [17] deals with carrageenan-induced rat paw edema. Briefly: Carrageenan-induced rat paw edema assay. The series is classed as in vivo. Conditions: for Edema thickness (mm) ± SEM: n = 4. The procedure: Pretreatment of rats with compounds 7a–k, 8a–c, and 9a–c before injection with carrageenan in rat paw which induces inflammation and then the percentage of paw edema reduction was measured after certain hours according to previously reported procedures.
Background: The carrageenan paw model is a standard test of acute inflammation.

In series [18] the test system is MRSA bacteria and E. coli, K. pneumoniae, P. aeruginosa, and A. baumannii. Briefly: Antibacterial screening, result pooled over the five bacteria. Type of series: cell-based. Conditions: read-out: growth inhibition, range over MRSA, E. coli, K. pneumoniae, P. aeruginosa and A. baumannii. The procedure:
as §1

Series [19] concerns K. pneumoniae.
Procedure: as §3

One may read the MIC as the smallest concentration in the dilution series that meets the test's criterion for growth inhibition. For orientation: inhibition means how much of the control response was suppressed. The term IC50 denotes the point on the concentration scale where inhibition reaches its midpoint. As a reminder, the melting point is the temperature, or range, at which the solid turns liquid.

Molecules are shown by their SMILES. ≈ marks a conversion by molar mass, not a printed value. Some results are limits rather than exact numbers.

Take `C[C@@H]1[C@H](O)[C@@H](C)/C=C/C=C/C=C/C=C/C=C/C=C/C=C/[C@H](O[C@@H]2O[C@H](C)[C@@H](O)[C@H](N)[C@@H]2O)C[C@@H]2O[C@](O)(C[C@@H](O)C[C@@H](O)[C@H](O)CC[C@@H](O)C[C@@H](O)CC(=O)O[C@H]1C)C[C@H](O)[C@H]2C(=O)O` [Amphotericin B, amphotericin B, reference compound]: the MIC in series [1] and in series [2] was 1.56 µg/mL (≈ 1.69 µM) each time.
`CS(=O)(=O)c1ccc(-c2[nH]c3ccccc3c2C=NNc2ccc(F)cc2)cc1` [Compound 7a, 3-((2-(4-Fluorophenyl)hydrazono)methyl)-2-(4-(methylsulfonyl)phenyl)-1H-indole]: the melting point was 204 to 206 °C. Besides, in series [3], the inhibition at 32 µg/mL worked out at 96.7%. Also, the inhibition at 32 µg/mL in series [4] came to 96.5%. Moreover, in series [5], the inhibition at 32 µg/mL stood at 97.6%. Further, in series [6], the inhibition at 32 µg/mL stood at 97.8%. The inhibition at 32 µg/mL in [7] was 95.8%. Besides, the inhibition at 32 µg/mL in series [8] worked out at 6.28%. The MIC in series [9] worked out at 8 µg/mL (≈ 19.6 µM). Also, the MIC in series [10] is no more than 0.25 µg/mL. In addition, in series [11], the MIC came out at 4 µg/mL (≈ 9.82 µM). The MIC in series [12] amounted to 16 µg/mL (≈ 39.3 µM). For the same molecule, the MIC in series [1] was greater than 32 µg/mL. Besides, the MIC in [2] was greater than 32 µg/mL. In addition, the CC50 in series [13] was greater than 32 µg/mL. Moreover, the “HC10 (concentration at 10% hemolysis)” value in series [14] is greater than 32 µg/mL. In addition, it took 10.3 µM to reach half-maximal inhibition in series [15] (IC50). In series [16], the “Selectivity index (SI)” value is given as 93.81. In [17] (1 h), the Edema inhibition % stood at 74.1% and the “Edema thickness (mm) ± SEM” value came to 0.679 ± 0.03 mm. Moreover, in series [17] (3 h), the Edema inhibition % is reported as 88.7% and the “Edema thickness (mm) ± SEM” value amounted to 0.250 ± 0.021 mm. Also, in series [17] (6 h), the Edema inhibition % is 92% and the “Edema thickness (mm) ± SEM” value is 0.151 ± 0.007 mm. For the same molecule, the inhibition at 32 µg/mL in series [18] lay in the range of 85.8 to 97.8%. For the same molecule, the “MIC Kp (K. pneumoniae)” value in [19] amounted to 8 µg/mL (≈ 19.6 µM).
`Cc1ccc(NN=Cc2c(-c3ccc(S(C)(=O)=O)cc3)[nH]c3ccc(C)cc23)cc1` [Compound 7g, 5-Methyl-2-(4-(methylsulfonyl)phenyl)-3-((2-(p-tolyl)hydrazono)methyl)-1H-indole] showed a melting point of 166 to 168 °C. Also, the inhibition at 32 µg/mL in series [3] worked out at 85.8%. The inhibition at 32 µg/mL in series [4] was 86.4%. Besides, the inhibition at 32 µg/mL in [5] is 87.5%. Besides, in series [6], the inhibition at 32 µg/mL came to 94.6%. Further, the inhibition at 32 µg/mL in series [7] came out at 96.2%. The inhibition at 32 µg/mL in [8] turned out to be 4.88%. Also, in series [9], the MIC is 1 µg/mL (≈ 2.4 µM). Also, the MIC in [10] was no more than 0.25 µg/mL. In addition, the minimum inhibitory concentration (MIC) in [11] was 1 µg/mL (≈ 2.4 µM). Also, in [12], the MIC stood at 4 µg/mL (≈ 9.58 µM). The MIC in series [1] was greater than 32 µg/mL. The MIC in [2] is greater than 32 µg/mL. Also, the CC50 in [13] is 4.2 µg/mL (≈ 10.1 µM). The “HC10 (concentration at 10% hemolysis)” value in series [14] was greater than 32 µg/mL. This molecule also had an IC50 in series [15] of 7.9 µM. The “Selectivity index (SI)” value in [16] stood at 39.50. In series [17] (1 h), the Edema inhibition % is reported as 58.5% and the “Edema thickness (mm) ± SEM” value was determined as 1.088 ± 0.090 mm. Moreover, in [17] (3 h), the Edema inhibition % is 72.3% and the “Edema thickness (mm) ± SEM” value is given as 0.618 ± 0.010 mm. In addition, in series [17] (6 h), the Edema inhibition % is given as 67.4% and the “Edema thickness (mm) ± SEM” value is listed as 0.618 ± 0.045 mm. In addition, in series [18], the inhibition at 32 µg/mL was in the range of 85.8 to 97.8%. The “MIC Kp (K. pneumoniae)” value in series [19] turned out to be 1 µg/mL (≈ 2.4 µM).
Molecule `CS(=O)(=O)c1ccc(-c2[nH]c3ccc(F)cc3c2/C=N/Nc2ccc(S(N)(=O)=O)cc2)cc1` [Compound 7i, 4-(2-((5-Fluoro-2-(4-(methylsulfonyl)phenyl)-1H-indol-3yl)methylene)hydrazinyl) benzene sulfonamide] registered a melting point of 212 to 214 °C. The inhibition at 32 µg/mL in series [3] came to 94.3%. Further, the inhibition at 32 µg/mL in series [4] was found to be 96.5%. For the same molecule, in series [5], the inhibition at 32 µg/mL was found to be 94.4%. In addition, the inhibition at 32 µg/mL in series [6] was determined as 96.9%. Besides, the inhibition at 32 µg/mL in series [7] came to 95.2%. Also, the inhibition at 32 µg/mL in series [8] was 15.3%. In addition, the MIC in [9] came out at 2 µg/mL (≈ 4.11 µM). Moreover, the minimum inhibitory concentration (MIC) in [10] was no more than 0.25 µg/mL. Besides, in series [11], the MIC is 2 µg/mL (≈ 4.11 µM). Moreover, the MIC in [12] was found to be 4 µg/mL (≈ 8.22 µM). Moreover, the MIC in [1] was greater than 32 µg/mL. Moreover, in series [2], the minimal inhibitory concentration (MIC) is greater than 32 µg/mL. In series [13], the CC50 worked out at 2.99 µg/mL (≈ 6.14 µM). The “HC10 (concentration at 10% hemolysis)” value in series [14] is reported as greater than 32 µg/mL. This molecule had an IC50 in series [15] of 13.2 µM. Moreover, the “Selectivity index (SI)” value in series [16] is 132. Further, in [17] (1 h), the Edema inhibition % turned out to be 73.1% and the “Edema thickness (mm) ± SEM” value was 0.705 ± 0.047 mm. Also, in [17] (3 h), the Edema inhibition % is listed as 94.3% and the “Edema thickness (mm) ± SEM” value is on record as 0.127 ± 0.009 mm. Moreover, in series [17] (6 h), the Edema inhibition % worked out at 90.1% and the “Edema thickness (mm) ± SEM” value was 0.187 ± 0.015 mm. Further, the inhibition at 32 µg/mL in [18] fell in the range of 85.8 to 97.8%. Further, the “MIC Kp (K. pneumoniae)” value in [19] turned out to be 2 µg/mL (≈ 4.11 µM).
